Assay results from US20040186066A1, “Method of treatment with nelfinavir” (AGOURON PHARMACEUTICALS, INC., priority 2003, published 2004).
Where a name gives a salt, the structure may show the parent alone. Read-outs that look alike come from different tables or passages of the source.

Experiment: Example 1: phase I crossover food-effect study, single-dose pharmacokinetics of nelfinavir 250 mg tablets (total kilocalories and fat)
Format: in vivo, human (normal healthy volunteers)
Details: for half-life / AUC / Cmax / Tmax / AUC(0-t) / AUC(0-inf): human, plasma, 1250 mg; for AUC: read-out: AUC12; for AUC(0-t): read-out: AUC(0-tlqc), least-squares mean; for AUC(0-inf): read-out: AUC(0-∞) (AUCinf), least-squares mean
Description: A phase I, randomized, open-label crossover study to evaluate the impact of total kilocalories and fat content on single-dose pharmacokinetic parameters of the nelfinavir 250 mg tablet formulation in normal healthy volunteers was performed. Healthy volunteers entered the study and received the following treatment in random order at least 1 week apart: 1) 5×250 mg nelfinavir tablets, fasted 2) 5×250 mg nelfinavir tablets (breakfast meal 1, 125 Kcal/20% fat=low cal/low fat) 3) 5×250 mg nelfinavir tablets (breakfast meal 2, 500 Kcal/20% fat=medium cal/low fat) 4) 5×250 mg nelfinavir tablets (breakfast meal 3, 1000 Kcal/50% fat=high cal/high fat). Plasma concentrations of nelfinavir and its active hydroxy-t-butylamide metabolite (M8) were measured by validated high performance liquid chromatography (HPLC) methods. Pharmacokinetic parameters were determined from plasma concentration-time data using standard methods. Nelfinavir was administered as five 250-mg tablets with 240 mL of water. All subjects received a standardized snack the evening they were admitted to the in-patient facility. For the fasting evaluation, subjects were required to complete an overnight fast of at least 10 hours prior to dosing in the morning. For the fed pharmacokinetic evaluations, subjects were required to complete an overnight fast of at least 10 hours, prior to receiving the protocol-specific standardized breakfast meal (that is, Meal 1, Meal 2, or Meal 3). Subjects were given 30 minutes to complete their standardized breakfast meal. Dosing was performed in the morning, immediately following the subject's completion of the standardized breakfast meal and after the subject's pre-dose pharmacokinetic specimen had been collected. Subjects could not ingest water 1 hour prior to or 1 hour after dosing. A standardized lunch was given at least 4 hours after the morning dose and a standardized dinner was given at least 10 hours after the morning dose. For pharmacokinetic sampling, blood samples, 5 mL each, were collected into heparinized vacuum tubes (green top tubes) via an indwelling catheter or direct venipuncture. The actual time of each collection was recorded on the source document. The timing of each sample collection was as follows: predose and at 0.5, 1, 2, 3, 4, 6, 8, and 12 hours postdose on Days 1, 8,15, and 22. Pharmacokinetic parameter values were calculated using WinNonlin Pro Version 2.1. Individual nelfinavir plasma concentrations were used to predict steady-state plasma concentrations during BID administration with meals of various Kcal content. WinNonlin Pro Version 3.2 noncompartmental superposition was used for this simulation. Predicted steady-state Cmax and Cmin values were compared.

[1] = po, nelfinavir, 1250 mg single oral dose with high calorie/high fat meal (1000 Kcal/50% fat)
[2] = po, nelfinavir, 1250 mg single oral dose with low calorie/low fat meal (125 Kcal/20% fat)
[3] = po, nelfinavir, 1250 mg single oral dose with moderate calorie/low fat meal (500 Kcal/20% fat)
[4] = po, nelfinavir, 1250 mg single oral dose, fasting (reference)
[5] = nelfinavir, 125 kcal/20% fat relative to fasting
[6] = nelfinavir, 500 kcal/20% fat relative to fasting
[7] = nelfinavir, 1000 kcal/50% fat relative to fasting
[8] = nelfinavir, high calorie/high fat meal (1000 Kcal/50% fat) vs fasting
[9] = nelfinavir, low calorie/low fat meal (125 Kcal/20% fat) vs fasting
[10] = nelfinavir, moderate calorie/low fat meal (500 Kcal/20% fat) vs fasting

Cc1c(O)cccc1C(=O)N[C@@H](CSc1ccccc1)[C@H](O)CN1C[C@H]2CCCC[C@H]2C[C@H]1C(=O)NC(C)(C)C (relative stereo) [nelfinavir, [3S-(3R*, 4aR*, 8aR*, 2′S*, 3′S*)]-2-[2′ hydroxy-3′-phenylthiomethyl-4′-aza-5′-oxo-5′-(2″-methyl-3″-hydroxy-phenyl)pentyl]-decahydroiso-quinoline-3-N-t-butylcarboxamide methanesulfonic acid salt]
half-life (oral, nelfinavir, across fasting and the three meals, read-out: half-life (t½), range of mean values): 3.6 to 5.6 h | AUC (oral, nelfinavir, food intake 125 kcal/20% fat): 20000 ng·h/mL | Cmax (oral, nelfinavir, food intake 125 kcal/20% fat, read-out: Cmax (Table 5)): 3160 ng/mL | AUC (oral, nelfinavir, food intake 500 kcal/20% fat): 25500 ng·h/mL | Cmax (oral, nelfinavir, food intake 500 kcal/20% fat, read-out: Cmax (Table 5)): 3670 ng/mL | AUC (oral, nelfinavir, food intake 1000 kcal/50% fat): 38900 ng·h/mL | Cmax (oral, nelfinavir, food intake 1000 kcal/50% fat, read-out: Cmax (Table 5)): 5200 ng/mL | Tmax (oral, nelfinavir, high calorie meal, read-out: mean tmax longer relative to fasting subjects): ~2 h | Tmax (oral, nelfinavir, low calorie meal, read-out: mean tmax longer relative to fasting subjects): ~1 h | Tmax (oral, nelfinavir, moderate calorie meal, read-out: mean tmax longer relative to fasting subjects): ~1.5 h | Cmax (po, nelfinavir in plasma, 1250 mg single oral dose with high calorie/high fat meal (1000 Kcal/50% fat), read-out: Cmax, least-squares mean): 5200 ng/mL | Cmax (po, nelfinavir in plasma, 1250 mg single oral dose with low calorie/low fat meal (125 Kcal/20% fat), read-out: Cmax, least-squares mean): 3160 ng/mL | Cmax (po, nelfinavir in plasma, 1250 mg single oral dose with moderate calorie/low fat meal (500 Kcal/20% fat), read-out: Cmax, least-squares mean): 3670 ng/mL | Cmax (po, nelfinavir in plasma, 1250 mg single oral dose, fasting (reference), read-out: Cmax, least-squares mean): 1570 ng/mL | AUC(0-t) [1]: 38900 ng·h/mL | AUC(0-inf) [1]: 55300 ng·h/mL | half-life (po, nelfinavir, 1250 mg single oral dose with high calorie/high fat meal (1000 Kcal/50% fat), read-out: t1/2 (terminal half-life), least-squares mean (converted)): 5.63 h | Tmax (po, nelfinavir, 1250 mg single oral dose with high calorie/high fat meal (1000 Kcal/50% fat), read-out: tmax, least-squares mean): 3.98 h | AUC(0-t) [2]: 20000 ng·h/mL | AUC(0-inf) [2]: 23100 ng·h/mL | half-life (po, nelfinavir, 1250 mg single oral dose with low calorie/low fat meal (125 Kcal/20% fat), read-out: t1/2 (terminal half-life), least-squares mean (converted)): 3.59 h | Tmax (po, nelfinavir, 1250 mg single oral dose with low calorie/low fat meal (125 Kcal/20% fat), read-out: tmax, least-squares mean): 3.02 h | AUC(0-t) [3]: 25500 ng·h/mL | AUC(0-inf) [3]: 33400 ng·h/mL | half-life (po, nelfinavir, 1250 mg single oral dose with moderate calorie/low fat meal (500 Kcal/20% fat), read-out: t1/2 (terminal half-life), least-squares mean (converted)): 4.77 h | Tmax (po, nelfinavir, 1250 mg single oral dose with moderate calorie/low fat meal (500 Kcal/20% fat), read-out: tmax, least-squares mean): 3.87 h | AUC(0-t) [4]: 9040 ng·h/mL | AUC(0-inf) [4]: 10600 ng·h/mL | half-life (po, nelfinavir, 1250 mg single oral dose, fasting (reference), read-out: t1/2 (terminal half-life), least-squares mean (converted)): 4.1 h | Tmax (po, nelfinavir, 1250 mg single oral dose, fasting (reference), read-out: tmax, least-squares mean): 2.18 h | AUC (po, nelfinavir, 1250 mg single oral dose, fasting): 9040 ng·h/mL | Cmax (po, nelfinavir, 1250 mg single oral dose, fasting, read-out: Cmax (Table 5)): 1570 ng/mL | AUC(0-∞) (AUCinf), least-squares mean (nelfinavir, 1250 mg single oral dose with high calorie/high fat meal (1000 Kcal/50% fat)): 55300 ng·h/mL | AUC(0-∞) (AUCinf), least-squares mean (nelfinavir, 1250 mg single oral dose with low calorie/low fat meal (125 Kcal/20% fat)): 23100 ng·h/mL | AUC(0-∞) (AUCinf), least-squares mean (nelfinavir, 1250 mg single oral dose with moderate calorie/low fat meal (500 Kcal/20% fat)): 33400 ng·h/mL | C12 (concentration at 12 hours postdose), mean (nelfinavir, 1250 mg single oral dose, 125 Kcal/20% fat): 0.65 µg/mL | C12 (concentration at 12 hours postdose), mean (nelfinavir, 1250 mg single oral dose, 500 Kcal/20% fat): 1.19 µg/mL | C12 (concentration at 12 hours postdose), mean (nelfinavir, 1250 mg single oral dose, 1000 Kcal/50% fat): 2.07 µg/mL | C12 (concentration at 12 hours postdose), mean (nelfinavir, 1250 mg single oral dose, fasting): 0.41 µg/mL | AUC12 (×fasting) [5]: 2.2 X | AUCinf (×fasting) [5]: 2.2 X | Cmax (×fasting) [5]: 2.0 X | AUC12 (×fasting) [6]: 2.8 X | AUCinf (×fasting) [6]: 3.1 X | Cmax (×fasting) [6]: 2.3 X | AUC12 (×fasting) [7]: 4.3 X | AUCinf (×fasting) [7]: 5.2 X | Cmax (×fasting) [7]: 3.3 X | C12 values compared with Cmax in fasting subjects (nelfinavir, dose with the high calorie/high fat meal, FIG. 1): higher than Cmax values in fasting subjects | mean Cmax higher relative to fasting subjects (nelfinavir, high calorie meal): 3.3 fold | AUC(0-tlqc) ratio (100% × test/reference) [8]: 430% | AUC(0-∞) ratio (100% × test/reference) [8]: 520% | Cmax ratio (100% × test/reference) [8]: 331% | t1/2 ratio (100% × test/reference) [8]: 139% | tmax ratio (100% × test/reference) [8]: 183% | mean Cmax higher relative to fasting subjects (nelfinavir, low calorie meal): 2 fold | AUC(0-tlqc) ratio (100% × test/reference) [9]: 221% | AUC(0-∞) ratio (100% × test/reference) [9]: 218% | Cmax ratio (100% × test/reference) [9]: 201% | t1/2 ratio (100% × test/reference) [9]: 87.5% | tmax ratio (100% × test/reference) [9]: 139% | bioavailability higher relative to fasting subjects, based on AUC(0-∞) (nelfinavir, meal 1 (125 Kcal/20% fat)): 2.2 fold | bioavailability higher relative to fasting subjects, based on AUC(0-∞) (nelfinavir, meal 2 (500 Kcal/20% fat)): 3.1 fold | bioavailability higher relative to fasting subjects, based on AUC(0-∞) (nelfinavir, meal 3 (1000 Kcal/50% fat)): 5.2 fold | AUC increase over fasting state (nelfinavir, meals containing 500-1000 kcal and 20-50% fat): 3-5 fold | mean Cmax higher relative to fasting subjects (nelfinavir, moderate calorie meal): 2.3 fold | AUC(0-tlqc) ratio (100% × test/reference) [10]: 282% | AUC(0-∞) ratio (100% × test/reference) [10]: 314% | Cmax ratio (100% × test/reference) [10]: 234% | t1/2 ratio (100% × test/reference) [10]: 116% | tmax ratio (100% × test/reference) [10]: 178%
